These results are taken from ChEMBL document CHEMBL5131564, “Discovery of Potent and Selective Receptor-Interacting Serine/Threonine Protein Kinase 2 (RIPK2) Inhibitors for the Treatment of Inflammatory Bowel Diseases (IBDs)” (J Med Chem, 2022).

A short description of data set [1]: Metabolic stability in human liver microsomes assessed as half life at 1 uM by LC/MS/MS analysis. It is filed as ADME, Microsome. On the technique in general: Microsomes from liver hold many membrane-bound enzymes, among them those of drug oxidation.
Another data set deals with Mus musculus. The data set is described as follows: Anti-inflammatory activity against DSS-induced acute ulcerative colitis C57BL/6 mouse model assessed as recovery of body weight at 20 to 40 mg/kg, po once a day measured after 2 days followed by 7 days after DSS treatment. The class given is functional, organism-based. To be noted: dose 20-40 mg/kg, time 2.0 day.
Data set [2] can be described thus: Inhibition of LPS/MDP-stimulated TNFalpha production in C57BL/6J mouse BMDM cells by ELISA relative to control. It is filed as functional, cell-based. (In general: An ELISA detects its analyte on a solid surface through an enzyme-linked reagent.)
A short description of data set [3]: Volume of distribution in Balb/C mouse at 10 mg/kg, iv measured upto 48 hrs by LC-MS/MS analysis. To be noted: in vivo. The class given is ADME, organism-based.
For a further data set, the system named is RAW264.7. The data set can be described thus: Inhibition of MDP-stimulated TNFalpha production in mouse RAW264.7 cells assessed as TNFalpha mRNA level upto 50 nM incubated for 22 hrs by real-time PCR analysis. It is filed as functional, cell-based.

Calls of active or inactive are those of the source. No cut-off for these calls is given here.

A word on the half-life: it is how long it takes for the measured level to halve. By IC50 is commonly meant the concentration that inhibits the measured activity by half. A lower IC50 goes with higher potency. In general, Vd refers to the apparent volume that relates the amount in the body to the concentration in plasma or blood. A higher Vd goes with wide distribution into tissue. `Cc1ccc(-c2cn([C@H]3CC[C@@H](N)CC3)c3ncnc(N)c23)c(F)c1`: the half-life at 1 µM in data set [1] was > 2 h. For the same compound, in the data set with Mus musculus, the outcome was Active. This compound came in with a half-inhibitory concentration (IC50) in data set [2] of 0.3 nM. In data set [3], this compound had a volume of distribution (Vd) of 43.9 L/kg. Besides, the inhibition result with RAW264.7 was “Active”.
